Test results published in patent publication US20030186967A1, “Acylresorcinol derivatives are selective vitronectin receptor inhibitors” (American Home Products Corporation, priority 1998, published 2003).

molecular target: T1, Vitronectin receptor αVβ3 (Homo sapiens, UniProt P05106+P06756); experiment: Vitronectin Receptor αVβ3 Binding Assay; conditions: read-out: VnR (IC50μM)
T1 construct: expressed in transfected cells; host or cells: 512P5 cells (plasma membrane preparation)
T1 sequence (P06756 31-889 limits assumed): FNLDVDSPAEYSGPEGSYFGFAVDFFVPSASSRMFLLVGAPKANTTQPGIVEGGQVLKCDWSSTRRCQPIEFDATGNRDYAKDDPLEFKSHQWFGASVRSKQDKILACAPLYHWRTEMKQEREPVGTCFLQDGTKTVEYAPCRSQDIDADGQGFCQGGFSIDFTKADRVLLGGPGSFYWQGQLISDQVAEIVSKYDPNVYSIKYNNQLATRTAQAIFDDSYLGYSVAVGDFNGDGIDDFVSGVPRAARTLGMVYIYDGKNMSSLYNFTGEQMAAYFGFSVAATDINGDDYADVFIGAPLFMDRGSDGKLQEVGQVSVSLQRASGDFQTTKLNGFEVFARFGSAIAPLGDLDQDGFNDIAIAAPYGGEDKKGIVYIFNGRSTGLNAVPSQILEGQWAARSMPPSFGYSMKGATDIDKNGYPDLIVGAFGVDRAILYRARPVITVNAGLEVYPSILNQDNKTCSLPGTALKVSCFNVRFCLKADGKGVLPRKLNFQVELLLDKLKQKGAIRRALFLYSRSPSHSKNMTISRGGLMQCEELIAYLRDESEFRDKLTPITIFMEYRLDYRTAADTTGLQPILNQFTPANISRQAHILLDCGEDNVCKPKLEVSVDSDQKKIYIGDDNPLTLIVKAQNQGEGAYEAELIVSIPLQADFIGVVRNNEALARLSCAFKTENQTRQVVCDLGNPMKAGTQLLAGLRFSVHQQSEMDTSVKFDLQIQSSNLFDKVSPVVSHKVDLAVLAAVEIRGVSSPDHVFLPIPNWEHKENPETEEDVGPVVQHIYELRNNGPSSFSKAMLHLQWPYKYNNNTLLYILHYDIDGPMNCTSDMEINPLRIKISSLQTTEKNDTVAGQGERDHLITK
T1 sequence (P06756 891-1048 partner limits assumed): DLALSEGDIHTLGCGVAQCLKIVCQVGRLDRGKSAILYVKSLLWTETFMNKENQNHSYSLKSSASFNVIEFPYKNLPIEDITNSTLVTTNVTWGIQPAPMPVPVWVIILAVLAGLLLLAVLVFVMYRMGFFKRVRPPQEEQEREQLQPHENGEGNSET
T1 sequence (P05106 27-788): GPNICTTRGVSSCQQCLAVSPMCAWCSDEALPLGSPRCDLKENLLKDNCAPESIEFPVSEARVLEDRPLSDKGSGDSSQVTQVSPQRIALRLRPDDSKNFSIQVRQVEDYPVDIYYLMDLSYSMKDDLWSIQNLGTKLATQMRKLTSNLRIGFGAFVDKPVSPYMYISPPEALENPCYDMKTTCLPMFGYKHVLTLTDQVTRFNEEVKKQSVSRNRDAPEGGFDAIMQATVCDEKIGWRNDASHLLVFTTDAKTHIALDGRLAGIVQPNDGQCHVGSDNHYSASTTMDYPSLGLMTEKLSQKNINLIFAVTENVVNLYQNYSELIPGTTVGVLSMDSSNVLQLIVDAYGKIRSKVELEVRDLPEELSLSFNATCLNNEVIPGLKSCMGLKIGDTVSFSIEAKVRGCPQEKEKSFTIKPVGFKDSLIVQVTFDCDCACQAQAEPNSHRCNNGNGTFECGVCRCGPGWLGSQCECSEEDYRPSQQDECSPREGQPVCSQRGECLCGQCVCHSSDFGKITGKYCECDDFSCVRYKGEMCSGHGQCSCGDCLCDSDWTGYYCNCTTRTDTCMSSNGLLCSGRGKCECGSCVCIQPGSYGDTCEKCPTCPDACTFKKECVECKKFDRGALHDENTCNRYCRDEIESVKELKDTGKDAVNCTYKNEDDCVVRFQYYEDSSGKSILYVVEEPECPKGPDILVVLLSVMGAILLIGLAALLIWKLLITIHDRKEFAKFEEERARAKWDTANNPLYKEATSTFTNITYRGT

IC50 [µM]	SMILES
17.1	CCCCCCCCOC(=O)N[C@@H](CNC(=O)c1ccc(OCCNC(=O)NCc2ccccc2)cc1O)C(=O)O [Example 229, (2S)-3-{[4-(2-{[(benzylamino)carbonyl]amino}ethoxy)-2-hydroxybenzoyl]amino}-2-{[(octyloxy)carbonyl]amino}propanoic acid]
4	O=C(NCCOc1ccc(C(=O)NC[C@H](NC(=O)OCC(Cl)(Cl)Cl)C(=O)O)c(O)c1)NCc1ccccc1 [Example 230, (2S)-3-{[4-(2-{[(benzylamino)carbonyl]amino}ethoxy)-2-hydroxybenzoyl]amino}-2-{[(2,2,2-trichloroethoxy)carbonyl]amino}propanoic acid]
3.3	O=C(NCCOc1ccc(C(=O)NC[C@H](NC(=O)OCc2ccccc2)C(=O)O)c(O)c1)NCc1cccnc1 [Example 233]
8.7	COC(=O)N[C@@H](CNC(=O)c1ccc(OCCNC(=O)NCc2cccnc2)cc1O)C(=O)O [Example 234, (2S)-3-({2-hydroxy-4-[2-({[(pyridin-3-ylmethyl)amino]carbonyl}-amino)ethoxy]-benzoyl}amino)-2-[(methoxycarbonyl)amino]propanoic acid]
3	CCOC(=O)N[C@@H](CNC(=O)c1ccc(OCCNC(=O)NCc2cccnc2)cc1O)C(=O)O [Example 235, (2S)-2-[(ethoxycarbonyl)amino]-3-({2-hydroxy-4-[2-({[(pyridin-3-ylmethyl)amino]-carbonyl}amino)ethoxy]benzoyl}amino)propanoic acid]
1.9	CCCOC(=O)N[C@@H](CNC(=O)c1ccc(OCCNC(=O)NCc2cccnc2)cc1O)C(=O)O [Example 236]
2.7	CC(C)OC(=O)N[C@@H](CNC(=O)c1ccc(OCCNC(=O)NCc2cccnc2)cc1O)C(=O)O [Example 237, (2S)-3-({2-hydroxy-4-[2-({[(pyridin-3-ylmethyl)amino]carbonyl}-amino)ethoxy]-benzoyl}amino)-2-[(isopropoxycarbonyl)amino]propanoic acid]
2.1	C=CCCOC(=O)N[C@@H](CNC(=O)c1ccc(OCCNC(=O)NCc2cccnc2)cc1O)C(=O)O [Example 239, (2S)-2-{[(but-3-enyloxy)carbonyl]amino}-3-({2-hydroxy-4-[2-({[(pyridin-3-ylmethyl)amino]carbonyl}amino)ethoxy]benzoyl}amino)propanoic acid]
4.1	CCCCCCOC(=O)N[C@@H](CNC(=O)c1ccc(OCCNC(=O)NCc2cccnc2)cc1O)C(=O)O [Example 241, (2S)-2-{[(hexyloxy)carbonyl]amino}-3-({2-hydroxy-4-[2-({[(pyridin-3-ylmethyl)-amino]carbonyl}amino)ethoxy]benzoyl}amino)propanoic acid]
7.9	CCCCCCCCOC(=O)N[C@@H](CNC(=O)c1ccc(OCCNC(=O)NCc2cccnc2)cc1O)C(=O)O [Example 242, (2S)-3-({2-hydroxy-4-[2-({[(pyridin-3-ylmethyl)amino]carbonyl}-amino)ethoxy]-benzoyl}amino)-2-{[(octyloxy)carbonyl]amino}propanoic acid]
0.69	CC(C)(C)COC(=O)N[C@@H](CNC(=O)c1ccc(OCCNC(=O)NCc2cccnc2)cc1O)C(=O)O [Example 243, (2S)-3-({2-hydroxy-4-[2-({[(pyridin-3-ylmethyl)amino]carbonyl}-amino)ethoxy]-benzoyl}amino)-2-{[(neopentyloxy)carbonyl]amino}propanoic acid]
1.6	O=C(NCCOc1ccc(C(=O)NC[C@H](NC(=O)OCC(Cl)(Cl)Cl)C(=O)O)c(O)c1)NCc1cccnc1 [Example 244, (2S)-3-({2-hydroxy-4-[2-({[(pyridin-3-ylmethyl)amino]carbonyl}amino)-ethoxy]benzoyl}amino)-2-{[(2,2,2-trichloroethoxy)carbonyl]amino}propanoic acid]
5.5	O=C(NCCOc1ccc(C(=O)NC[C@H](NC(=O)OCc2ccccc2)C(=O)O)c(O)c1)NCc1ccncc1 [Example 247, (2S)-2-{[(benzyloxy)carbonyl]amino}-3-({2-hydroxy-4-[2-({[(pyridin-4-ylmethyl)amino]carbonyl}amino)ethoxy]benzoyl}amino)propanoic acid]
5.31	CCCCCCOC(=O)N[C@@H](CNC(=O)c1ccc(OCCNC(=O)NCc2ccncc2)cc1O)C(=O)O [Example 255, (2S)-2-{[(hexyloxy)carbonyl]amino}-3-({2-hydroxy-4-[2-({[(pyridin-4-ylmethyl)amino]carbonyl}amino)ethoxy]benzoyl}amino)propanoic acid]
9.08	CCCCCCCCOC(=O)N[C@@H](CNC(=O)c1ccc(OCCNC(=O)NCc2ccncc2)cc1O)C(=O)O [Example 256, (2S)-3-({2-hydroxy-4-[2-({[(pyridin-4-ylmethyl)amino]carbonyl}-amino)ethoxy]-benzoyl}amino)-2-{[(octyloxy)carbonyl]amino}propanoic acid]
1.26	CC(C)(C)COC(=O)N[C@@H](CNC(=O)c1ccc(OCCNC(=O)NCc2ccncc2)cc1O)C(=O)O [Example 257, (2S)-3-({2-hydroxy-4-[2-({[(pyridin-4-ylmethyl)amino]carbonyl}-amino)ethoxy]-benzoyl}amino)-2-{[(neopentyloxy)carbonyl]amino}propanoic acid]
4.31	O=C(NCCOc1ccc(C(=O)NC[C@H](NC(=O)OCC(Cl)(Cl)Cl)C(=O)O)c(O)c1)NCc1ccncc1 [Example 258, (2S)-3-({2-hydroxy-4-[2-({[(pyridin-4-ylmethyl)amino]carbonyl}amino)-ethoxy]-benzoyl}amino)-2-{[(2,2,2-trichloroethoxy)carbonyl]amino}propanoic acid]
20.2	Cc1ccc(CNC(=O)NCCOc2ccc(C(=O)NC[C@H](NC(=O)OCc3ccccc3)C(=O)O)c(O)c2)cc1 [Example 261, (2S)-2-{[(benzyloxy)carbonyl]amino}-3-({2-hydroxy-4-[2-({[(4-methylbenzyl)-amino]carbonyl}amino)ethoxy]benzoyl}amino)propanoic acid]
12.6	COc1ccc(CNC(=O)NCCOc2ccc(C(=O)NC[C@H](NC(=O)OCc3ccccc3)C(=O)O)c(O)c2)cc1 [Example 262, (2S)-2-{[(benzyloxy)carbonyl]amino}-3-({2-hydroxy-4-[2-({[(4-methoxybenzyl)-amino]carbonyl}amino)ethoxy]benzoyl}amino)propanoic acid]
29	O=C(NCCOc1ccc(C(=O)NC[C@H](NC(=O)OCc2ccccc2)C(=O)O)c(O)c1)NCc1ccc(Cl)cc1 [Example 263, (2S)-2-{[(benzyloxy)carbonyl]amino}-3-({4-[2-({[(4-chlorobenzyl)amino]-carbonyl}-amino)ethoxy]-2-hydroxybenzoyl}amino)propanoic acid]
59.3	CN(C)c1ccc(CNC(=O)NCCOc2ccc(C(=O)NC[C@H](NC(=O)OCc3ccccc3)C(=O)O)c(O)c2)cc1 [Example 264, (2S)-2-{[(benzyloxy)carbonyl]amino}-3-[(4-{2-[({[4-(dimethylamino)benzyl]-amino}carbonyl)amino]ethoxy}-2-hydroxybenzoyl)amino]propanoic acid]
12.9	NS(=O)(=O)c1ccc(CNC(=O)NCCOc2ccc(C(=O)NC[C@H](NC(=O)OCc3ccccc3)C(=O)O)c(O)c2)cc1 [Example 265, (2S)-3-[(4-{2-[({[4-(aminosulfonyl)benzyl]amino}carbonyl)amino]ethoxy}-2-hydroxybenzoyl)amino]-2-{[(benzyloxy)carbonyl]amino}propanoic acid]
29.6	O=C(NCCOc1ccc(C(=O)NC[C@H](NC(=O)OCc2ccccc2)C(=O)O)c(O)c1)NCc1ccc(OC(F)(F)F)cc1 [Example 266, (2S)-2-{[(benzyloxy)carbonyl]amino}-3-[(2-hydroxy-4-{2-[({[4-(trifluoromethoxy)-benzyl]amino}carbonyl)amino]ethoxy}benzoyl)amino]propanoic acid]
10.2	O=C(NCCOc1ccc(C(=O)NC[C@H](NC(=O)OCc2ccccc2)C(=O)O)c(O)c1)NCc1ccccc1Cl [Example 267, (2S)-2-{[(benzyloxy)carbonyl]amino}-3-({4-[2-({[(2-chlorobenzyl)amino]carbonyl}-amino)ethoxy]-2-hydroxybenzoyl}amino)propanoic acid]
33.4	Cc1ccccc1CNC(=O)NCCOc1ccc(C(=O)NC[C@H](NC(=O)OCc2ccccc2)C(=O)O)c(O)c1 [Example 268]
21.2	O=C(NCCOc1ccc(C(=O)NC[C@H](NC(=O)OCc2ccccc2)C(=O)O)c(O)c1)NCc1ccccc1Br [Example 269, (2S)-2-{[(benzyloxy)carbonyl]amino}-3-({4-[2-({[(2-bromobenzyl)amino]-carbonyl}-amino)ethoxy]-2-hydroxybenzoyl}amino)propanoic acid]
21.7	O=C(NCCOc1ccc(C(=O)NC[C@H](NC(=O)OCc2ccccc2)C(=O)O)c(O)c1)NCc1ccc(Cl)cc1Cl [Example 270, (2S)-2-{[(benzyloxy)carbonyl]amino}-3-({4-[2-({[(2,4-dichlorobenzyl)amino]-carbonyl}amino)ethoxy]-2-hydroxybenzoyl}amino)propanoic acid]

SMILES	IC50 [µM]
CCCCOC(=O)N[C@@H](CNC(=O)c1ccc(OCCNC(=O)NCc2ccccc2)cc1O)C(=O)O [Example 231, (2S)-3-{[4-(2-{[(benzylamino)carbonyl]amino}ethoxy)-2-hydroxybenzoyl]amino}-2-[(butoxycarbonyl)amino]propanoic acid]	6.7
CC(C)COC(=O)N[C@@H](CNC(=O)c1ccc(OCCNC(=O)NCc2ccccc2)cc1O)C(=O)O [Example 232, (2S)-3-{[4-(2-{[(benzylamino)carbonyl]amino}ethoxy)-2-hydroxybenzoyl]amino}-2-[(isobutoxycarbonyl)amino]propanoic acid]	3.7
CC(C)COC(=O)N[C@@H](CNC(=O)c1ccc(OCCNC(=O)NCc2cccnc2)cc1O)C(=O)O [Example 246, (2S)-3-({2-hydroxy-4-[2-({[(pyridin-3-ylmethyl)amino]carbonyl}-amino)ethoxy]-benzoyl}amino)-2-[(isobutoxycarbonyl)amino]propanoic acid]	1.6
